Measured values as given in US6355799B1, “Substituted benzene compounds, process for their preparation, and herbicidal and defoliant compositions containing them” (ISK Americas Incorporated, priority 1997, dated 2002).

Key:
Type in all cases: in vivo
[1] = system: johnsongrass (Sorghum halepense, SORHA); test: Pre-emerge test, greenhouse herbicide activity screening; conditions: pre-emerge, 14 days after application, scale 0-100
Procedure, shortened: (§1)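 Sandy loam pots; pre-emerge: sown 1 d pre-spray, surface-watered after, then bottom-watered. Post-emerge: sown 8–21 d before, 2–3 leaf stage, + 0.25% v/v NIS, bottom-watered. Acetone, 187 l/ha track spray, 15–1000 g ai/ha. 0–100 injury score, day 14.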

[2] = system: lambsquarters (Chenopodium album, CHEAL); test: as above; conditions: pre-emerge, 14 days after application, scale 0-100
Procedure, shortened: as §1

[3] = system: large crabgrass (Digitaria sanguinalis, DIGSA); test: as above; conditions: pre-emerge, 14 days after application, scale 0-100
Procedure, shortened: as §1

[4] = system: ivyleaf morningglory (Ipomoea hederacea, IPOHE); test: as above; conditions: pre-emerge, 14 days after application, scale 0-100
Procedure, shortened: as §1

[5] = system: barnyardgrass (Echinochloa crus-galli, ECHCG); test: as above; conditions: pre-emerge, 14 days after application, scale 0-100
Procedure, shortened: as §1

[6] = system: velvetleaf (Abutilon theophrasti, ABUTH); test: as above; conditions: pre-emerge, 14 days after application, scale 0-100
Procedure, shortened: as §1

[7] = system: common ragweed (Ambrosia artemisizfolia L., AMBEL); test: as above; conditions: pre-emerge, 14 days after application, scale 0-100
Procedure, shortened: as §1

[8] = system: green foxtail (Setaria viridis, SETVI); test: as above; conditions: pre-emerge, 14 days after application, scale 0-100
Procedure, shortened: as §1

[9] = system: sicklepod (Cassia obtusifolia, CASOB); test: as above; conditions: pre-emerge, 14 days after application, scale 0-100
Procedure, shortened: as §1

[10] = system: redroot pigweed (Amaranthus retroflexus, AMARE); test: as above; conditions: pre-emerge, 14 days after application, scale 0-100
Procedure, shortened: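 Compounds in acetone were track-sprayed at 15-1000 g ai/ha (187 l/ha) on sandy loam pots: pre-emerge one day after seeding, post-emerge at 2-3 leaf stage with 0.25% v/v non-ionic surfactant. Phytotoxicity was rated 14 days later on a 0 (no damage) to 100 (complete death) scale.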

[11] = system: field corn (Zea mays L., var. Dekalb 535, CORN); test: Pre-emerge test, crop safety; conditions: pre-emerge, 14 days after application, scale 0-100
Procedure, shortened: (§2)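 Visual ratings on a 0-100 scale (0 no damage, 100 all plants dead) were taken at 14 days after treatment. Rates of 15-1000 g ai/ha in acetone, 187 l/ha, were sprayed onto soil one day after planting (pre-emerge) or onto 2-3 leaf plants with 0.25% v/v surfactant (post-emerge).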

[12] = system: upland rice (Oryza sp., var. Tebonnet, RICE); test: Pre-emerge test, crop safety; conditions: pre-emerge, 14 days after application, scale 0-100
Procedure, shortened: as §2

[13] = system: johnsongrass (Sorghum halepense, SORHA); test: Post-emerge test, greenhouse herbicide activity screening; conditions: post-emerge, 14 days after application, rating scale 0-100
Procedure, shortened: (§3)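 Compounds in acetone were track-sprayed at 15–1000 g ai/ha: pre-emergence onto soil sown the previous day, then top-watered to incorporate and later bottom-watered; post-emergence onto 2–3 leaf plants with 0.25% v/v surfactant, bottom-watered only. Ratings on a 0–100 phytotoxicity scale were taken at day 14.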

[14] = system: lambsquarters (Chenopodium album, CHEAL); test: as above; conditions: post-emerge, 14 days after application, rating scale 0-100
Procedure, shortened: as §3

[15] = system: large crabgrass (Digitaria sanguinalis, DIGSA); test: as above; conditions: post-emerge, 14 days after application, rating scale 0-100
Procedure, shortened: as §3

[16] = system: ivyleaf morningglory (Ipomoea hederacea, IPOHE); test: as above; conditions: post-emerge, 14 days after application, rating scale 0-100
Procedure, shortened: as §3

[17] = system: barnyardgrass (Echinochloa crus-galli, ECHCG); test: as above; conditions: post-emerge, 14 days after application, rating scale 0-100
Procedure, shortened: as §3

[18] = system: velvetleaf (Abutilon theophrasti, ABUTH); test: as above; conditions: post-emerge, 14 days after application, rating scale 0-100
Procedure, shortened: as §3

[19] = system: green foxtail (Setaria viridis, SETVI); test: as above; conditions: post-emerge, 14 days after application, rating scale 0-100
Procedure, shortened: as §3

[20] = system: sicklepod (Cassia obtusifolia, CASOB); test: as above; conditions: post-emerge, 14 days after application, rating scale 0-100
Procedure, shortened: as §3

[21] = system: redroot pigweed (Amaranthus retroflexus, AMARE); test: as above; conditions: post-emerge, 14 days after application, rating scale 0-100
Procedure, shortened: as §3

[22] = system: field corn (Zea mays L., var. Dekalb 535, CORN); test: Post-emerge test, crop safety; conditions: post-emerge, 14 days after application, rating scale 0-100
Procedure, shortened: as §1

[23] = system: upland rice (Oryza sp., var. Tebonnet, RICE); test: Post-emerge test, crop safety; conditions: post-emerge, 14 days after application, rating scale 0-100
Procedure, shortened: as §1

Cc1c(Cl)cc(F)c(-n2c(=O)cc(C(F)(F)F)n(C)c2=O)c1NC(=O)C=Cc1ccccc1 [2-123]
100: phytotoxicity rating CHEAL ([2]; 63 g ai/ha) | phytotoxicity rating CHEAL ([2]; 250 g ai/ha) | phytotoxicity rating DIGSA ([3]; 250 g ai/ha) | phytotoxicity rating IPOHE ([4]; 63 g ai/ha) | phytotoxicity rating IPOHE ([4]; 250 g ai/ha) | phytotoxicity rating ABUTH ([6]; 63 g ai/ha) | phytotoxicity rating ABUTH ([6]; 250 g ai/ha) | phytotoxicity rating AMBEL ([7]; 250 g ai/ha) | phytotoxicity rating SETVI ([8]; 250 g ai/ha) | phytotoxicity rating AMARE ([10]; 63 g ai/ha) | phytotoxicity rating AMARE ([10]; 250 g ai/ha) | phytotoxicity rating CHEAL ([14]; 63 g ai/ha) | phytotoxicity rating CHEAL ([14]; 250 g ai/ha) | phytotoxicity rating IPOHE ([16]; 63 g ai/ha) | phytotoxicity rating IPOHE ([16]; 250 g ai/ha) | phytotoxicity rating ABUTH ([18]; 63 g ai/ha) | phytotoxicity rating ABUTH ([18]; 250 g ai/ha) | phytotoxicity rating CASOB ([20]; 63 g ai/ha) | phytotoxicity rating CASOB ([20]; 250 g ai/ha) | phytotoxicity rating AMARE ([21]; 63 g ai/ha) | phytotoxicity rating AMARE ([21]; 250 g ai/ha)
35: phytotoxicity rating CORN ([22]; 63 g ai/ha)
20: phytotoxicity rating ECHCG ([17]; 250 g ai/ha) | phytotoxicity rating SETVI ([19]; 63 g ai/ha)
15: phytotoxicity rating CORN (crop damage) ([11]; 250 g ai/ha)
40: phytotoxicity rating ECHCG ([5]; 63 g ai/ha) | phytotoxicity rating CORN ([22]; 250 g ai/ha)
70: phytotoxicity rating SORHA ([1]; 250 g ai/ha) | phytotoxicity rating RICE ([23]; 250 g ai/ha)
30: phytotoxicity rating SORHA ([1]; 63 g ai/ha) | phytotoxicity rating RICE (crop damage) ([12]; 63 g ai/ha) | phytotoxicity rating SORHA ([13]; 250 g ai/ha) | phytotoxicity rating DIGSA ([15]; 250 g ai/ha) | phytotoxicity rating SETVI ([19]; 250 g ai/ha)
10: phytotoxicity rating SORHA ([13]; 63 g ai/ha) | phytotoxicity rating DIGSA ([15]; 63 g ai/ha) | phytotoxicity rating ECHCG ([17]; 63 g ai/ha)
95: phytotoxicity rating AMBEL ([7]; 63 g ai/ha)
60: phytotoxicity rating DIGSA ([3]; 63 g ai/ha) | phytotoxicity rating CASOB ([9]; 63 g ai/ha) | phytotoxicity rating RICE ([23]; 63 g ai/ha)
80: phytotoxicity rating ECHCG ([5]; 250 g ai/ha) | phytotoxicity rating SETVI ([8]; 63 g ai/ha) | phytotoxicity rating RICE (crop damage) ([12]; 250 g ai/ha)
90: phytotoxicity rating CASOB ([9]; 250 g ai/ha)
0: phytotoxicity rating CORN (crop damage) ([11]; 63 g ai/ha)
